Tests used:
[1] = molecular target: T1, orexin-2 receptor (hOX2R) (Homo sapiens, UniProt O43614); experiment: Orexin antagonistic activity assay (intracellular Ca2+, FDSS) in CHO cells expressing hOX2R; assay type: cell-based; conditions: CHO cells expressing hOX2R; ligand peptide 3 nM; Fluo-3 maximum fluorescence intensity; read-out: IC50 value OX2
T1 construct: expressed in transfected cells; host or cells: Chinese hamster ovary (CHO) cells
T1 sequence (O43614 1-444): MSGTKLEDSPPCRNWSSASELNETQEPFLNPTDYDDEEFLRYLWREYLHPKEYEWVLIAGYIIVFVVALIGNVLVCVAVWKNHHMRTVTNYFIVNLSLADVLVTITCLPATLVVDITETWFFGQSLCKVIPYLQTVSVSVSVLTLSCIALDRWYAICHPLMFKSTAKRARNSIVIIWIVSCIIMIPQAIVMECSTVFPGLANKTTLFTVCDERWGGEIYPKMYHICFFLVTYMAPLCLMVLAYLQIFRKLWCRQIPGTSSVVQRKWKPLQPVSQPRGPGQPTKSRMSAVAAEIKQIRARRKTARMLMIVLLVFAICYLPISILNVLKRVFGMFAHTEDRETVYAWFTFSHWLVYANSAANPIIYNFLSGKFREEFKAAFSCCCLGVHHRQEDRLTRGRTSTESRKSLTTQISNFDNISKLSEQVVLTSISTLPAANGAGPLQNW
Experimental: (§1) The antagonistic activity of each test compound against human orexin-1 receptor (hOX1R) and orexin-2 receptor (hOX2R) was assayed by a modification of a method described in the literature (Toshikatsu Okumura et al., Biochemical and Biophysical Research Communications 280, 976-981, 2001). Chinese hamster ovary (CHO) cells forced to express hOX1R or hOX2R were inoculated at a density of 20,000 cells/well to a 96-well Black clear bottom plate (Nunc) and cultured at 37° C. for 16 hours under 5% CO2 conditions in a Ham's F-12 medium containing 0.1 mM MEM nonessential amino acids, 0.5 mg/ml G418, and 10% fetal bovine serum (all from Invitrogen Corp.). After removal of the medium, 100 μL of a buffer solution for assay (25 mM HEPES (Dojindo Laboratories), Hanks' balanced salt solution (Invitrogen Corp.), 0.1% bovine serum albumin, 2.5 mM probenecid, and 200 μg/ml Amaranth (all from Sigma-Aldrich Corp.), pH 7.4) containing 0.5 μM Fluo-3 AM ester (Dojindo Laboratories) was added to the cells, which were then incubated at 37° C. for 60 minutes under 5% CO2 conditions. After removal of the buffer solution for assay containing Fluo-3 AM ester, each test compound was dissolved at a concentration of 10 mM in dimethyl sulfoxide and diluted with a buffer solution for assay. Then, 150 μL of the solution was added to the cells, which were then incubated for 30 minutes.
(§2) A ligand peptide (Pyr-[…]NH2; Peptide Institute, Inc.) derived from human orexin-A by the substitution of two amino acids was diluted with a buffer solution for assay to final concentrations of 300 pM for hOX1R and 3 nM for hOX2R. Reaction was initiated by the addition of 50 μL of this ligand solution. The fluorescence intensity of the reaction was measured in each well every second for 3 minutes using Functional Drug Screening System (FDSS; manufactured by Hamamatsu Photonics K.K.), and the maximum fluorescence intensity was used as an index for intracellular Ca^2+ concentration to determine antagonistic activity. The antagonistic activity of the test compound was calculated with fluorescence intensity from a well supplemented with only a diluting buffer solution as 100% and fluorescence intensity from a well supplemented with a buffer solution free from the ligand and the compound as 0%. The 50% inhibitory concentration (IC50 value) was determined on the basis of fluorescence intensity derived from the test compound added at varying concentrations.

[2] = molecular target: T2, human orexin-1 receptor (hOX1R) (Homo sapiens, UniProt O43613); experiment: Orexin antagonistic activity assay (intracellular Ca2+, FDSS) in CHO cells expressing hOX1R; assay type: cell-based; conditions: CHO cells expressing hOX1R; ligand peptide 300 pM; Fluo-3 maximum fluorescence intensity; read-out: IC50 value OX1
T2 construct: expressed in transfected cells; host or cells: Chinese hamster ovary (CHO) cells
T2 sequence (O43613 1-425): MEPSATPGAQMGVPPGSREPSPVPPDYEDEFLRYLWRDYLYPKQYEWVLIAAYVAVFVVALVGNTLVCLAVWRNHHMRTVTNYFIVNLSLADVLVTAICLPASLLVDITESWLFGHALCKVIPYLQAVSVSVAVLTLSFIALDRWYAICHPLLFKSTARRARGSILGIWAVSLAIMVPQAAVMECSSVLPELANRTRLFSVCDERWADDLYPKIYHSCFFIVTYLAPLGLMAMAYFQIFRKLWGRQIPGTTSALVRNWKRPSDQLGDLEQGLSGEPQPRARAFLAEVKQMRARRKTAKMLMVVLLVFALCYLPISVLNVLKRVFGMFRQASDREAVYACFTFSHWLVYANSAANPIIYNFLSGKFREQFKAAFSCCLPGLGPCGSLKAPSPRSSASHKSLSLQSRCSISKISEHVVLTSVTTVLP
Experimental: as §1, §2

Compound	IC50 [1]	IC50 [2]
C[C@@H]1CC[C@@H](c2nc3cc(C(F)(F)F)ccc3o2)CN1C(=O)c1cc(F)ccc1-c1ncccn1 [Example 38, [5-Fluoro-2-(pyrimidin-2-yl)phenyl]{(2R,5R)-2-methyl-5-[5-(trifluoromethyl)-1,3-benzoxazol-2-yl]piperidin-1-yl}methanone]	78.6 nM	814 nM
Cc1ccc(-n2nccn2)c(C(=O)N2C[C@H](c3nc4cc(OC(F)(F)F)ccc4o3)CC[C@H]2C)n1 [Example 42, [6-Methyl-3-(2H-1,2,3-triazol-2-yl)pyridin-2-yl]{(2R,5R)-2-methyl-5-[5-(trifluoromethoxy)-1,3-benzoxazol-2-yl]piperidin-1-yl}methanone]	919 nM	1040 nM
COc1ccc(-n2nccn2)c(C(=O)N2C[C@H](c3nc4cc(Cl)ccc4o3)CC[C@H]2C)c1 [Example 25, [(2R,5R)-5-(5-Chloro-1,3-benzoxazol-2-yl)-2-methylpiperidin-1-yl][5-methoxy-2-(2H-1,2,3-triazol-2-yl)phenyl]methanone]	66 nM	387 nM
C[C@@H]1CC[C@@H](c2nc3cc(Cl)ccc3o2)CN1C(=O)c1cccc(F)c1-c1ncccn1 [Example 18, [(2R,5R)-5-(5-Chloro-1,3-benzoxazol-2-yl)-2-methylpiperidin-1-yl][3-fluoro-2-(pyrimidin-2-yl)phenyl]methanone]	59.5 nM	301 nM
C[C@@H]1CC[C@@H](c2nc3ccc(Cl)cc3o2)CN1C(=O)c1ccc(F)cc1-n1nccn1 [Example 47, [(2R,5R)-5-(6-Chloro-1,3-benzoxazol-2-yl)-2-methylpiperidin-1-yl][4-fluoro-2-(2H-1,2,3-triazol-2-yl)phenyl]methanone]	16.6 nM	58.6 nM
Cc1ccc(-n2nccn2)c(C(=O)N2C[C@H](c3nc4cc(F)c(F)cc4o3)CC[C@H]2C)n1 [Example 54, [(2R,5R)-5-(5,6-Difluoro-1,3-benzoxazol-2-yl)-2-methylpiperidin-1-yl][6-methyl-3-(2H-1,2,3-triazol-2-yl)pyridin-2-yl]methanone]	52 nM	98.7 nM
Cc1ccc(-c2ncccn2)c(C(=O)N2C[C@H](c3nc4ccc(Cl)cc4o3)CC[C@H]2C)c1 [Example 44, [(2R,5R)-5-(6-Chloro-1,3-benzoxazol-2-yl)-2-methylpiperidin-1-yl][5-methyl-2-(pyrimidin-2-yl)phenyl]methanone]	23.1 nM	9.1 nM
Cc1ccc(-c2ncccn2)c(C(=O)N2CC(c3nc4cc(Cl)ccc4o3)CC[C@H]2C)n1 (single isomer, unassigned) [Example 4, [(2R*,5R*)-5-(5-Chloro-1,3-benzoxazol-2-yl)-2-methylpiperidin-1-yl][6-methyl-3-(pyrimidin-2-yl)pyridin-2-yl]methanone]	17.2 nM	4.3 nM
C[C@@H]1CC[C@@H](c2nc3cc(F)c(F)cc3o2)CN1C(=O)c1cc(Cl)ccc1-c1ncccn1 [Example 53, [5-Chloro-2-(pyrimidin-2-yl)phenyl][(2R,5R)-5-(5,6-difluoro-1,3-benzoxazol-2-yl)-2-methylpiperidin-1-yl]methanone]	13.2 nM	56.3 nM
Cc1ccc(-n2nccn2)c(C(=O)N2C[C@H](c3nc4cc(F)ccc4o3)CC[C@H]2C)n1 (single isomer, unassigned) [Example 11, [(2R*,5R*)-5-(5-Fluoro-1,3-benzoxazol-2-yl)-2-methylpiperidin-1-yl][6-methyl-3-(2H-1,2,3-triazol-2-yl)pyridin-2-yl]methanone]	43.7 nM	42.1 nM
C[C@@H]1CC[C@@H](c2nc3cc(Cl)cnc3o2)CN1C(=O)c1ccc(F)cc1-n1nccn1 [Example 72, [(2R,5R)-5-(6-Chloro[1,3]oxazolo[5,4-b]pyridin-2-yl)-2-methylpiperidin-1-yl][4-fluoro-2-(2H-1,2,3-triazol-2-yl)phenyl]methanone]	80.5 nM	412 nM

Now those with a lower IC50 [1], led by results:

IC50 [1]	IC50 [2]	Compound
8.7 nM	19.8 nM	C[C@@H]1CC[C@@H](c2nc3cc(Cl)ccc3o2)CN1C(=O)c1cc(F)ccc1-n1nccn1 (single isomer, unassigned) [Example 2, [(2R*,5R*)-5-(5-Chloro-1,3-benzoxazol-2-yl)-2-methylpiperidin-1-yl][5-fluoro-2-(2H-1,2,3-triazol-2-yl)phenyl]methanone]
9.3 nM	83.7 nM	C[C@@H]1CC[C@@H](c2nc3cc(Cl)ccc3o2)CN1C(=O)c1c(F)cccc1-c1ncccn1 [Example 19, [(2R,5R)-5-(5-Chloro-1,3-benzoxazol-2-yl)-2-methylpiperidin-1-yl][2-fluoro-6-(pyrimidin-2-yl)phenyl]methanone]
9.2 nM	4.4 nM	Cc1ccc(-c2ncccn2)c(C(=O)N2C[C@H](c3nc4ccc(F)c(F)c4o3)CC[C@H]2C)c1 [Example 59, [(2R,5R)-5-(6,7-Difluoro-1,3-benzoxazol-2-yl)-2-methylpiperidin-1-yl][5-methyl-2-(pyrimidin-2-yl)phenyl]methanone]
4.1 nM	18.1 nM	C[C@@H]1CC[C@@H](c2nc3cc(Cl)ccc3o2)CN1C(=O)c1ccccc1-n1nccn1 (single isomer, unassigned) [Example 3, [(2R*,5R*)-5-(5-Chloro-1,3-benzoxazol-2-yl)-2-methylpiperidin-1-yl][2-(2H-1,2,3-triazol-2-yl)phenyl]methanone]
5 nM	91.1 nM	C[C@@H]1CC[C@@H](c2nc3cc(F)ccc3o2)CN1C(=O)c1c(F)cccc1-n1nccn1 [Example 35, [(2R,5R)-5-(5-Fluoro-1,3-benzoxazol-2-yl)-2-methylpiperidin-1-yl][2-fluoro-6-(2H-1,2,3-triazol-2-yl)phenyl]methanone]
11 nM	82.9 nM	C[C@@H]1CC[C@@H](c2nc3cc(F)c(F)cc3o2)CN1C(=O)c1cc(F)ccc1-c1ncccn1 [Example 52, [(2R,5R)-5-(5,6-Difluoro-1,3-benzoxazol-2-yl)-2-methylpiperidin-1-yl][5-fluoro-2-(pyrimidin-2-yl)phenyl]methanone]
8.2 nM	24.9 nM	C[C@@H]1CC[C@@H](c2nc3cc(F)ccc3o2)CN1C(=O)c1cc(F)ccc1-c1ncccn1 [Example 32, [(2R,5R)-5-(5-Fluoro-1,3-benzoxazol-2-yl)-2-methylpiperidin-1-yl][5-fluoro-2-(pyrimidin-2-yl)phenyl]methanone]
4.9 nM	4.8 nM	Cc1ccc(-n2nccn2)c(C(=O)N2C[C@H](c3nc4cc(F)ccc4o3)CC[C@H]2C)c1 (single isomer, unassigned) [Example 10, [(2R*,5R*)-5-(5-Fluoro-1,3-benzoxazol-2-yl)-2-methylpiperidin-1-yl][5-methyl-2-(2H-1,2,3-triazol-2-yl)phenyl]methanone]
6 nM	111 nM	C[C@@H]1CC[C@@H](c2nc3cc(F)ccc3o2)CN1C(=O)c1cc(F)ccc1-n1nccn1 [Example 29, [(2R,5R)-5-(5-Fluoro-1,3-benzoxazol-2-yl)-2-methylpiperidin-1-yl][5-fluoro-2-(2H-1,2,3-triazol-2-yl)phenyl]methanone]
